In patent US20080004270A1, “3,4-Disubstituted Pyrazoles as Cyclin Dependent Kinases (Cdk) or Aurora Kinase or Glycogen Synthase 3 (Gsk-3) Inhibitors” (ASTEX THERAPEUTICS LIMITED, priority 2004, published 2008):

What was measured:
[1] = target: T1, CDK1/CyclinB (Homo sapiens, UniProt P06493); assay: Activated CDK1/CyclinB kinase inhibitory activity assay; type: biochemical; settings: histone H1 substrate, γ33P-ATP filter assay; read-out: IC50 against CDK1 activity
T1 construct: purchased Upstate Discovery
Method: (§1) Activated CDK2/CyclinA (Brown et al, Nat. Cell Biol., 1, pp 438-443, 1999; Lowe, E. D., et al Biochemistry, 41, pp 15625-15634, 2002) is diluted to 125 pM in 2.5× strength assay buffer (50 mM MOPS pH 7.2, 62.5 mM β-glycerophosphate, 12.5 mM EDTA, 37.5 mM MgCl2, […], 2.5 mM DTT, 2.5 mM sodium orthovanadate, 0.25 mg/ml bovine serum albumin), and 10 μl mixed with 10 μl of histone substrate mix (60 μl bovine histone H1 (Upstate Biotechnology, 5 mg/ml), 940 μl H2O, 35 μCi γ^33P-ATP) and added to 96 well plates along with 5 μl of various dilutions of the test compound in DMSO (up to 2.5%). The reaction is allowed to proceed for 2 to 4 hours before being stopped with an excess of ortho-phosphoric acid (5 μl at 2%).
(§2) γ^33P-ATP which remains unincorporated into the histone H1 is separated from phosphorylated histone H1 on a Millipore MAPH filter plate. The wells of the MAPH plate are wetted with 0.5% orthophosphoric acid, and then the results of the reaction are filtered with a Millipore vacuum filtration unit through the wells. Following filtration, the residue is washed twice with 200 μl of 0.5% orthophosphoric acid. Once the filters have dried, 20 μl of Microscint 20 scintillant is added, and then counted on a Packard Topcount for 30 seconds.
(§3) The % inhibition of the CDK2 activity is calculated and plotted in order to determine the concentration of test compound required to inhibit 50% of the CDK2 activity (IC50).
CDK1/CyclinB assay is identical to the CDK2/CyclinA above except that CDK1/CyclinB (Upstate Discovery) is used and the enzyme is diluted to 6.25 nM.

[2] = target: Activated CDK2/CyclinA (Homo sapiens, UniProt P24941); assay: Activated CDK2/CyclinA kinase inhibitory activity assay; type: biochemical; settings: histone H1 substrate, γ33P-ATP filter assay; read-out: IC50 against CDK2 activity
Method: Compounds of the invention were tested for kinase inhibitory activity using the following protocol.
as §1, §2, §3

T1 sequence (P06493 whole entry): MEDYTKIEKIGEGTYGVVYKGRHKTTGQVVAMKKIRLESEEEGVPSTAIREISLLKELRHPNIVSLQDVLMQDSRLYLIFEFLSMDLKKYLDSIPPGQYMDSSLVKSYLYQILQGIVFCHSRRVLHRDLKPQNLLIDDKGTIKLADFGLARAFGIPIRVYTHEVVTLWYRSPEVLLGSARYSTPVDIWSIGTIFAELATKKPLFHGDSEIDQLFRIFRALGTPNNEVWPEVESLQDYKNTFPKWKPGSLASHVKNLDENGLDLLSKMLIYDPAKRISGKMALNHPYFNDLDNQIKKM
T1 sequence (P14635 whole entry partner): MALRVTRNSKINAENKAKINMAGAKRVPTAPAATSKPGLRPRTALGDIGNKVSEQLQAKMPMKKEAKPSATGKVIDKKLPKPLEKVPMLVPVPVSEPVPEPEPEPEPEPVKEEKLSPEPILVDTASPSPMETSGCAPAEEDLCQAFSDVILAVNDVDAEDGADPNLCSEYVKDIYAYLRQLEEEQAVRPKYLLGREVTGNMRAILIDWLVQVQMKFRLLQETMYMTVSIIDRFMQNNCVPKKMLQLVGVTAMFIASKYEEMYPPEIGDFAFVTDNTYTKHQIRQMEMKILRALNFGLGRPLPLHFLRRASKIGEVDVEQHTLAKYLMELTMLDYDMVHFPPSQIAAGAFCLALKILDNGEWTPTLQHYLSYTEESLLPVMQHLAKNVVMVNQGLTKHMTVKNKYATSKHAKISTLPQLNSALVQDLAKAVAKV

IC50 [1] [nM]	IC50 [2] [nM]	SMILES
< 1000	< 1000	O=C(Nc1c[nH]nc1-c1nc2cc[nH]c(=O)c2[nH]1)c1c(F)cccc1F [Example 1, 2,6-difluoro-N-[3-(4-oxo-4,5-dihydro-3H-imidazo[4,5-c]pyridin-2-yl)-1H-pyrazol-4-yl]-benzamide]
< 1000	< 1000	O=C(Nc1c[nH]nc1-c1nc2c([nH]1)CCNC2)c1c(F)cccc1F [Example 4, 2,6-difluoro-N-[3-(4,5,6,7-tetrahydro-1H-imidazol[4,5-c]pyridin-2-yl)-1H-pyrazol-4-yl]-benzamide]
< 1000	< 1000	CCN1CCc2[nH]c(-c3n[nH]cc3NC(=O)c3c(F)cccc3F)nc2C1 [Example 6, N-[3-(5-ethyl-4,5,6,7-tetrahydro-1H-imidazo[4,5-c]pyridine-2-yl)-1H-pyrazol-4-yl]-2,6-difluoro-benzamide]
< 1000	< 1000	O=C(Nc1c[nH]nc1-c1nc2c([nH]1)CCN(CCF)C2)c1c(F)cccc1F [Example 7, 2,6-difluoro-N-{3-[5-(2-fluoro-ethyl)-4,5,6,7-tetrahydro-1H-imidazol[4,5-c]pyridine-2-yl]-1H-pyrazol-4-yl}-benzamide]
